Measurements: article PMC9352670 (2022)

Tested on: Dm-HS-1 TTC ∆ s.c. (DNA, aptamer, no side-chain at 22 (codon 2 TTC); others as HFNAP: fluorophenyl at 19; allylamine at 25, 37; alcohol at 28, 34, 49; phenol at 31, 46; cyclopentyl at 40; cyclopropyl at 43, 58; imidazole at 52, 55, 61) GAAAGCAGGACTGGAGATCGATTCTGGTGCTGTTGATCTCCGCCATTGTGCTCCTACCCTTCACAGACCGAACTAGAGCTT
Test: microscale thermophoresis
Conditions: 5 mM KCl, 1 mM MgCl2, 1 mM CaCl2 added to HBS-P+; HBS-P+ buffer, 25 °C

COc1cccc2c1C(=O)c1c(O)c3c(c(O)c1C2=O)C[C@@](O)(C(C)=O)C[C@@H]3O[C@H]1C[C@H](N)[C@H](O)[C@H](C)O1
Kd: 16.2 ± 3.2 nM
